How the values were obtained:
Format in all cases: cell-based
[1] = biological target: T1, BTK (Homo sapiens, UniProt Q06187); assay: BTK degradative activity in a RAMOS cell line (Western blot); conditions: 6 hours after administration, read-out: RAMOS BTK Degradation DC50
T1 construct: BTK Degradative Activity of Exemplary Compounds of the Present Disclosure in a RAMOS Cell Line; host or cells: RAMOS
Method in brief: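 Ramos cells in RPMI with 10% FBS were treated with compound in DMSO at various concentrations for 6 h at 37 °C. BTK was measured by Western blot against GAPDH with infrared fluorescent detection and band quantification. DC50 is the concentration at which 50% of BTK is degraded.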

[2] = test system: REC-1 cells; assay: Growth inhibitory activity in BTK-dependent REC-1 cell line (CellTiter-Glo); conditions: Homo sapiens, Rec1, 144 h, 6 days after administration, read-out: REC1 Cellular Grwoth Inhibition IC50
Experimental: (§1) REC-1 (ATCC) and REC-1 BTK^C481S cells were plated in 96-well plates at 8,000 cells/well in 90 ul of RPMI growth medium containing 10% heat-inactivated FBS and 1× Penicillin Streptomycin, and then incubated at 37° C. overnight. The following day, the test compound was administered to the cells by using 10× compound stock solution prepared in growth medium at various concentrations. After administration of the compound, cells were then incubated at 37° C. for 6 days. Before CellTiter-Glo assay, the plates were equilibrated at room temperature for approximately 10 minutes. 100 ul of CellTiter-Glo® Reagent (Promega) was added to each well. The plates were then incubated at room temperature for 10 minutes and luminescence was recorded by EnSpire plate reader (PerkinElmer).
(§2) The GI50 values (i.e., the concentration of test compound at which 50% of cell growth are inhibited) were calculated. A designation of “A” corresponds to a […] value less than 20 nM. A designation of “B” corresponds to a […] value greater than or equal to 20 nM and less than 200 nM. A designation of “C” corresponds to a […] value greater than or equal to 200 nM.

[3] = test system: REC-1 BTK^C481S cells; assay: Growth inhibitory activity in REC-1 BTK^C481S cell line (CellTiter-Glo); conditions: Homo sapiens, Rec1, 144 h, 6 days after administration, read-out: REC1 BTK^C481S Cellular Grwoth Inhibition IC50
Experimental: The BTK gene in REC-1 cell line (ATCC) was edited by the CRISPR-Cas9 technology to create a C to S point mutation at residue 481 of BTK protein. For gene editing, first, gRNA complex was prepared with Alt-R CRISPR-Cas9 tracrRNA and crRNA BTK^C481S (5′-[…]-3′) (IDT-Integrated DNA Technologies), and then BTK^C481S ribonucleoprotein (RNP) complex was prepared with gRNA complex and Alt-R S.p. Cas9 Nuclease V3 (IDT-Integrated DNA Technologies). Next, 1×10^5 REC-1 cells were electroporated with BTK^C481S RNP complex, Alt-R Cas9 Electroporation Enhancer and BTKC481S Ultramer DNA Oligo (5′-[…] […]-3′) (IDT-Integrated DNA Technologies) using Neon Transfection System (Thermo Fisher) under the condition of 1400 V, 10 ms, 3 pulses. Cells were then plated in a 96-well plate for 10 days and selected with 10 nM Ibrutinib for 5 passages. C481S mutation of BTK was further validated by Sanger Sequencing using gDNA extracted from these cells.
as §1, §2

T1 sequence (Q06187 whole entry): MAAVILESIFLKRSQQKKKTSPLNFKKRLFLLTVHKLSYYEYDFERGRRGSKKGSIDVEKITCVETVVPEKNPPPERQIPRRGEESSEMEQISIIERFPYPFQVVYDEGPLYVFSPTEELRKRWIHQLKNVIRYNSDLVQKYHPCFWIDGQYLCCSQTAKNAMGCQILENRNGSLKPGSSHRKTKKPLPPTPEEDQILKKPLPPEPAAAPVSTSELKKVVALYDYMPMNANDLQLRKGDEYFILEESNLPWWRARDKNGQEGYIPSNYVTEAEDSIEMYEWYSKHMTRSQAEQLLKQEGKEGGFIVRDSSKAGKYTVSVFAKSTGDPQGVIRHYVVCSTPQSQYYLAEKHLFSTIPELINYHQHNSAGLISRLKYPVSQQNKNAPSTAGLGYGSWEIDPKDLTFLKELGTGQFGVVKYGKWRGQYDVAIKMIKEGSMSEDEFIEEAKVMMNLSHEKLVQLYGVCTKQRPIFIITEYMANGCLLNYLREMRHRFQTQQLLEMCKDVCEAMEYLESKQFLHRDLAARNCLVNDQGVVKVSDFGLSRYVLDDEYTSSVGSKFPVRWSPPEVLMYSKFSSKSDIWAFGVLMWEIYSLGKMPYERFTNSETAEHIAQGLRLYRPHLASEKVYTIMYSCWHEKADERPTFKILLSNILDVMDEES

| Compound | DC50 [1] [µM] | IC50 [2] [µM] | IC50 [3] [µM] |
| --- | --- | --- | --- |
| COc1ccc(F)cc1C(=O)NCc1ccc(-c2nn(-c3ccc(N4CCC(CN5CCN(c6ccc7c(c6)CN([C@H]6CCC(=O)NC6=O)C7=O)CC5)CC4)c(F)c3)c3ncnc(N)c23)cc1 [Compound 49, (S)—N-(4-(4-amino-1-(4-(4-((4-(2-(2,6-dioxopiperidin-3-yl)-1-oxoisoindolin-5-yl)piperazin-1-yl)methyl)piperidin-1-yl)-3-fluorophenyl)-1H-pyrazolo[3,4-d]pyrimidin-3-yl)benzyl)-5-fluoro-2-methoxybenzamide] | < 0.01 | < 0.02 | < 0.02 |
| COc1ccc(F)cc1C(=O)NCc1ccc(-c2nn(-c3ccc(N4CCC(CN5CCN(c6ccc7c(c6)CN([C@H]6CCC(=O)NC6=O)C7=O)CC5)CC4)nc3)c3ncnc(N)c23)cc1 [Compound 59, (S)—N-(4-(4-amino-1-(6-(4-((4-(2-(2,6-dioxopiperidin-3-yl)-1-oxoisoindolin-5-yl)piperazin-1-yl)methyl)piperidin-1-yl)pyridin-3-yl)-1H-pyrazolo[3,4-d]pyrimidin-3-yl)benzyl)-5-fluoro-2-methoxybenzamide] |  | < 0.02 | < 0.02 |
| COc1ccc(F)cc1C(=O)NCc1ccc(-c2nn(C3CCN(c4ccc(CN5CCN(c6ccc7c(c6)CN([C@H]6CCC(=O)NC6=O)C7=O)CC5)cc4)C3)c3ncnc(N)c23)cc1 (stereo partly drawn) [Compound 60, N-(4-(4-amino-1-(1-(4-((4-(2-((S)-2,6-dioxopiperidin-3-yl)-1-oxoisoindolin-5-yl)piperazin-1-yl)methyl)phenyl)pyrrolidin-3-yl)-1H-pyrazolo[3,4-d]pyrimidin-3-yl)benzyl)-5-fluoro-2-methoxybenzamide] | ≥ 0.1 | 0.02 to 0.2 |  |
| COc1ccc(F)cc1C(=O)NCc1ccc(-c2nn(C3CN(c4ccc(CN5CCN(c6ccc7c(c6)CN([C@H]6CCC(=O)NC6=O)C7=O)CC5)cc4)C3)c3ncnc(N)c23)cc1 [Compound 61, (S)—N-(4-(4-amino-1-(1-(4-((4-(2-(2,6-dioxopiperidin-3-yl)-1-oxoisoindolin-5-yl)piperazin-1-yl)methyl)phenyl)azetidin-3-yl)-1H-pyrazolo[3,4-d]pyrimidin-3-yl)benzyl)-5-fluoro-2-methoxybenzamide] | < 0.01 | < 0.02 |  |
| COc1ccc(F)cc1C(=O)NCc1ccc(-c2nn(C3CN(C(=O)c4ccc(CN5CCN(c6ccc7c(c6)CN([C@H]6CCC(=O)NC6=O)C7=O)CC5)cc4)C3)c3ncnc(N)c23)cc1 [Compound 62, (S)—N-(4-(4-amino-1-(1-(4-((4-(2-(2,6-dioxopiperidin-3-yl)-1-oxoisoindolin-5-yl)piperazin-1-yl)methyl)benzoyl)azetidin-3-yl)-1H-pyrazolo[3,4-d]pyrimidin-3-yl)benzyl)-5-fluoro-2-methoxybenzamide] | < 0.01 | 0.02 to 0.2 |  |
| COc1ccc(F)cc1C(=O)NCc1ccc(-c2nn(C3CCN(C(=O)c4ccc(CN5CCN(c6ccc7c(c6)CN([C@H]6CCC(=O)NC6=O)C7=O)CC5)cc4)C3)c3ncnc(N)c23)cc1 (some centres unmarked) [Compound 63] | < 0.01 | 0.02 to 0.2 |  |
| COc1ccc(F)cc1C(=O)NCc1ccc(-c2nn(C3CCN(C(=O)CCCCCN4CCN(c5ccc6c(c5)CN([C@H]5CCC(=O)NC5=O)C6=O)CC4)C3)c3ncnc(N)c23)cc1 (stereo partly drawn) [Compound 64, N-(4-(4-amino-1-(1-(6-(4-(2-((S)-2,6-dioxopiperidin-3-yl)-1-oxoisoindolin-5-yl)piperazin-1-yl)hexanoyl)pyrrolidin-3-yl)-1H-pyrazolo[3,4-d]pyrimidin-3-yl)benzyl)-5-fluoro-2-methoxybenzamide] | < 0.01 | 0.02 to 0.2 |  |
| COc1ccc(F)cc1C(=O)NCc1ccc(-c2nn(-c3ccc(N4CCC(CN5CCN(c6ccc7c(c6)CN([C@H]6CCC(=O)NC6=O)C7=O)CC5)C4)c(F)c3)c3ncnc(N)c23)cc1 (stereo partly drawn) [Compound 65, N-(4-(4-amino-1-(4-(3-((4-(2-((S)-2,6-dioxopiperidin-3-yl)-1-oxoisoindolin-5-yl)piperazin-1-yl)methyl)pyrrolidin-1-yl)-3-fluorophenyl)-1H-pyrazolo[3,4-d]pyrimidin-3-yl)benzyl)-5-fluoro-2-methoxybenzamide] | < 0.01 | < 0.02 | < 0.02 |
| COc1ccc(F)cc1C(=O)NCc1ccc(-c2nn(-c3ccc(N4CCC(CN5CCN(c6ccc7c(c6)CN([C@H]6CCC(=O)NC6=O)C7=O)CC5)C4)nc3)c3ncnc(N)c23)cc1 (stereo partly drawn) [Compound 66, N-(4-(4-amino-1-(6-(3-((4-(2-((S)-2,6-dioxopiperidin-3-yl)-1-oxoisoindolin-5-yl)piperazin-1-yl)methyl)pyrrolidin-1-yl)pyridin-3-yl)-1H-pyrazolo[3,4-d]pyrimidin-3-yl)benzyl)-5-fluoro-2-methoxybenzamide] | < 0.01 | < 0.02 | < 0.02 |
| COc1ccc(F)cc1C(=O)NCc1ccc(-c2nn(-c3ccc(N4CC(CN5CCN(c6ccc7c(c6)CN([C@H]6CCC(=O)NC6=O)C7=O)CC5)C4)c(F)c3)c3ncnc(N)c23)cc1 [Compound 85, (S)—N-(4-(4-amino-1-(4-(3-((4-(2-(2,6-dioxopiperidin-3-yl)-1-oxoisoindolin-5-yl)piperazin-1-yl)methyl)azetidin-1-yl)-3-fluorophenyl)-1H-pyrazolo[3,4-d]pyrimidin-3-yl)benzyl)-5-fluoro-2-methoxybenzamide] | < 0.01 | < 0.02 | < 0.02 |
| COc1ccc(F)cc1C(=O)NCc1ccc(-c2nn(C3CCN(c4ccc(CN5CCN(c6ccc7c(c6)CN([C@H]6CCC(=O)NC6=O)C7=O)CC5)cn4)C3)c3ncnc(N)c23)cc1 (stereo partly drawn) [Compound 92, N-(4-(4-amino-1-(1-(5-((4-(2-((S)-2,6-dioxopiperidin-3-yl)-1-oxoisoindolin-5-yl)piperazin-1-yl)methyl)pyridin-2-yl)pyrrolidin-3-yl)-1H-pyrazolo[3,4-d]pyrimidin-3-yl)benzyl)-5-fluoro-2-methoxybenzamide] | < 0.01 | 0.02 to 0.2 |  |
| COc1ccc(F)cc1C(=O)NCc1ccc(-c2nn(-c3ccc(N4CC[C@H](CN5CCN(c6ccc7c(c6)CN([C@H]6CCC(=O)NC6=O)C7=O)CC5)C4)nc3)c3ncnc(N)c23)cc1 [Compound 93, N-(4-(4-amino-1-(6-((R)-3-((4-(2-((S)-2,6-dioxopiperidin-3-yl)-1-oxoisoindolin-5-yl)piperazin-1-yl)methyl)pyrrolidin-1-yl)pyridin-3-yl)-1H-pyrazolo[3,4-d]pyrimidin-3-yl)benzyl)-5-fluoro-2-methoxybenzamide] | < 0.01 | < 0.02 | < 0.02 |
| COc1ccc(F)cc1C(=O)NCc1ccc(-c2nn(-c3ccc(N4CC[C@@H](CN5CCN(c6ccc7c(c6)CN([C@H]6CCC(=O)NC6=O)C7=O)CC5)C4)nc3)c3ncnc(N)c23)cc1 [Compound 94, N-(4-(4-amino-1-(6-((S)-3-((4-(2-((S)-2,6-dioxopiperidin-3-yl)-1-oxoisoindolin-5-yl)piperazin-1-yl)methyl)pyrrolidin-1-yl)pyridin-3-yl)-1H-pyrazolo[3,4-d]pyrimidin-3-yl)benzyl)-5-fluoro-2-methoxybenzamide] | < 0.01 | < 0.02 | < 0.02 |
| COc1ccc(F)cc1C(=O)NCc1ccc(-c2nn(-c3ccc(N4CC[C@H](CN5CCN(c6ccc7c(c6)CN([C@H]6CCC(=O)NC6=O)C7=O)CC5)C4)c(F)c3)c3ncnc(N)c23)cc1 [Compound 95, N-(4-(4-amino-1-(4-((R)-3-((4-(2-((S)-2,6-dioxopiperidin-3-yl)-1-oxoisoindolin-5-yl)piperazin-1-yl)methyl)pyrrolidin-1-yl)-3-fluorophenyl)-1H-pyrazolo[3,4-d]pyrimidin-3-yl)benzyl)-5-fluoro-2-methoxybenzamide] | < 0.01 | < 0.02 | < 0.02 |

Source: patent US11530222B2, “Substituted pyrrolopyrimidine and pyrazolopyrimidine as Bruton's tyrosine kinase (BTK) degraders” (ACCUTAR BIOTECHNOLOGY INC., priority 2021, dated 2022)
